The source of these data is patent US8178548B2, “Anti-infective agents and uses thereof” (priority 2007, dated 2012).

Read-outs that look alike come from different tables or passages of the source.

Assay [1] relates to genotype 1b-Con1 subgenomic replicon cell line. Nature of the assay: HCV Polymerase Replicon Assay, genotype 1b-Con1 (luciferase reporter). The assay is classed as cell-based. Conditions: Hepatitis C virus, 72 h, read-out: EC50 1b. For orientation: Replicon systems follow genome replication, usually without infectious particles.
Assay [2] has as its system genotype 1a-H77 subgenomic replicon cell line. Nature of the assay: HCV Polymerase Replicon Assay, genotype 1a-H77 (luciferase reporter). The assay is classed as cell-based. Conditions: Hepatitis C virus, 72 h, read-out: EC50 1a.
Assay [3] addresses T1, HCV polymerase 1B (Δ21 NS5B, HCV Strain 1B BK) (Hepatitis C virus genotype 1b, UniProt P26663).
T1 construct: 20 to 50 nM Δ21 NS5B
The experiment in a line: biochemical. The procedure:
(§1) Either two-fold serial dilutions (fractional inhibition assay) or a narrower range of dilutions spanning the IC50 of the inhibitor (tight binding assay) of the inhibitors were incubated with 20 mM Tris-Cl pH 7.4, 2 mM MnCl2, 1 mM dithiothreitol, 1 mM ethylene diamine tetraacetic acid (EDTA), 60 to 125 μM GTP and 20 to 50 nM Δ21 NS5B (HCV Strain 1B (BK, Genbank accession number M58335, or H77, Genbank accession number AF011751)) for 15 min at room temperature. The reaction was initiated by the addition of 20 μM CTP, 20 μM ATP, 1 μM ^3H-UTP (10 mCi/umol), 5 nM template RNA and 0.1 U/μl RNase inhibitor (RNasin, Promega), and allowed to proceed for 2 to 4 h at room temperature. Reaction volume was 50 μl. The reaction was terminated by the addition of 1 volume of 4 mM spermine in 10 mM Tris-Cl pH 8.0, 1 mM EDTA. After incubation for at least 15 min at room temperature, the precipitated RNA was captured by filtering through a GF/B filter (Millipore) in a 96 well format. The filter plate was washed three times with 200 μl each of 2 mM spermine, 10 mM Tris-Cl pH 8.0, 1 mM EDTA, and 2 times with ethanol. After air-drying, 30 μl of Microscint 20 scintillation cocktail (Packard) was added to each well, and the retained cpm were determined by scintillation counting. […] Retained cpm were plotted vs. inhibitor concentration and fit to equation 1 using non-linear regression (ref. 1) to obtain the IC50 values: Retained cpm=A[sqrt{(IC50+It−Et)^2+4*IC50*Et}−(IC50+It−Et)]
(§2) Ref. Morrison, J. F. and S. R. Stone. 1985. Approaches to the study and analysis of the inhibition of enzymes by slow- and tight-binding inhibitors. Comments Mol. Cell. Biophys. 2: 347-368.
(§3) The sequence of the template RNA used was: 5′-[…] […] […] […] […] […] […] […] […] […] […] […] […] […] […] […] […]-3′ (SEQ ID NO:1).

The target in assay [4] is T2, HCV polymerase 1A (Δ21 NS5B, H77) (Hepatitis C virus genotype 1a, UniProt P27958).
T2 construct: 20 to 50 nM Δ21 NS5B
T2 sequence (P27958 2421-2990, stated change not applied): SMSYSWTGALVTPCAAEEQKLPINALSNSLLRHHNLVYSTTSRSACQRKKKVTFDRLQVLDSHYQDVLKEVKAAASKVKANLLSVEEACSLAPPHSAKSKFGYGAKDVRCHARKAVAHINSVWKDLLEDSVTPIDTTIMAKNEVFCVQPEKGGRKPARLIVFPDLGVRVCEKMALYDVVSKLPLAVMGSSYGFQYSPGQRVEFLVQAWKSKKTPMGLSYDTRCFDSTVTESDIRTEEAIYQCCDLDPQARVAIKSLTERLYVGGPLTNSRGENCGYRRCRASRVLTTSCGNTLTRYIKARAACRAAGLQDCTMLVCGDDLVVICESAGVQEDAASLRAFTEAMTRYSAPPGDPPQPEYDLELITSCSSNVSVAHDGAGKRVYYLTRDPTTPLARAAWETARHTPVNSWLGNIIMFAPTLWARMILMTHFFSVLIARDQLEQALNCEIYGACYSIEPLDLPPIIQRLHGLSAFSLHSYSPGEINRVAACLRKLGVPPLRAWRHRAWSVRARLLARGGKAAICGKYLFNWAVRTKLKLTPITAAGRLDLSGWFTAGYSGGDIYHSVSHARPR
The experiment in a line: biochemical. The procedure: as §1, §2, §3

Setting [5] is: replicon 1b-Con1, luciferase, three days.
[6] abbreviates: replicon 1a-H77, luciferase, three days.

T1 sequence (P26663 2420-2989, stated change not applied): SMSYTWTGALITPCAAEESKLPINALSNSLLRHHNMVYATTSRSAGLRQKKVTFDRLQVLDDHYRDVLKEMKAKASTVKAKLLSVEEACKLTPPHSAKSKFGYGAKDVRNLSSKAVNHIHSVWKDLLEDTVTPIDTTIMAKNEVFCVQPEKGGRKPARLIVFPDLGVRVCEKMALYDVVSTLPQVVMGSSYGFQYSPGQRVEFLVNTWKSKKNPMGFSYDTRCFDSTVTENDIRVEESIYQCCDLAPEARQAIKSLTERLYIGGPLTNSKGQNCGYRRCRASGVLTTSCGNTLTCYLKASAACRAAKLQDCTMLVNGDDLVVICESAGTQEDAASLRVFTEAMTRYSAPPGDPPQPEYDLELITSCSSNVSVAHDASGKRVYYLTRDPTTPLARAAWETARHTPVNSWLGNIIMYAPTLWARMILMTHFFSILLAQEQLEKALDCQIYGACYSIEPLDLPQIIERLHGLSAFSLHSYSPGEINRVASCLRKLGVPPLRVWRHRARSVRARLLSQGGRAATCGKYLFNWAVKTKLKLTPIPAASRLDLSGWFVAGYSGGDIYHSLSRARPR

With `COCCNC(=O)c1cc(NS(C)(=O)=O)ccc1/C=C/c1cc(-n2ccc(=O)[nH]c2=O)cc(C(C)(C)C)c1OC` [IB-L1-1.9, 2-{(E)-2-[3-tert-Butyl-5-(2,4-dioxo-3,4-dihydro-2H-pyrimidin-1-yl)-2-methoxy-phenyl]-vinyl}-5-methanesulfonylamino-N-(2-methoxy-ethyl)-benzamide], the values for the EC50 in assay [1] and in assay [2] were under 10 nM and 10 to 100 nM, respectively. In addition, the half-maximal inhibitory concentration (IC50) (in general, the point on the concentration scale where inhibition reaches its midpoint) is 10 to 100 nM in assay [3] and under 10 nM in assay [4].
`COc1c(/C=C/c2ccc(NS(C)(=O)=O)cc2)cc(-n2cc(Cl)c(=O)[nH]c2=O)cc1C(C)(C)C` [IB-L1-1.20, N-(4-{(E)-2-[3-tert-butyl-5-(5-chloro-2,4-dioxo-3,4-dihydro-2H-pyrimidin-1-yl)-2-methoxyphenyl]-vinyl}-phenyl)-methanesulfonamide]: the concentration for a half-maximal effect (EC50) – broadly, the concentration that produces a half-maximal response – in assay [1] (setting [5]) is under 10 nM; in assay [2] (setting [6]), 10 to 100 nM. Also, the IC50 in assay [3] is 10 to 100 nM; in assay [4], under 10 nM.
As to `COc1c(/C=C/c2ccc(NS(C)(=O)=O)cc2-c2ncco2)cc(-n2ccc(=O)[nH]c2=O)cc1C(C)(C)C` [IB-L1-1.26, (E)-N-(4-(3-tert-butyl-5-(2,4-dioxo-3,4-dihydropyrimidin-1(2H)-yl)-2-methoxystyryl)-3-(oxazol-2-yl)phenyl)methanesulfonamide], the EC50 is under 10 nM in assay [1] and 10 to 100 nM in assay [2]. Moreover, the IC50 in assay [3] and in assay [4] was 10 to 100 nM in each case.
For the molecule `COc1c(/C=C/c2ccc(NS(C)(=O)=O)cc2C=NO)cc(-n2ccc(=O)[nH]c2=O)cc1C(C)(C)C` [IB-L1-1.8, N-[4-{(E)-2-[3-tert-Butyl-5-(2,4-dioxo-3,4-dihydro-2H-pyrimidin-1-yl)-2-methoxy-phenyl]-vinyl}-3-(hydroxyimino-methyl)-phenyl]-methanesulfonamide], the EC50 in assay [1] was under 10 nM; in assay [2] it was 10 to 100 nM. Moreover, the IC50 was 10 to 100 nM in assay [3] and under 10 nM in assay [4].
In the case of `CCOc1c(/C=C/c2ccc(NS(C)(=O)=O)cc2)cc(-n2ccc(=O)[nH]c2=O)cc1C(C)(C)C` [IB-L1-1.30, (E)-N-(4-(3-tert-butyl-5-(2,4-dioxo-3,4-dihydropyrimidin-1(2H)-yl)-2-ethoxystyryl)phenyl)methanesulfonamide], the EC50 was 10 to 100 nM in assay [1] (setting [5]) and 100 to 1000 nM in assay [2] (setting [6]). Also, the IC50 in assay [3] and in assay [4] was 10 to 100 nM in each case.
In the case of `COc1ccc(/C=C/c2cc(N3CCC(=O)NC3=O)cc(C(C)(C)C)c2OC)cc1` [IA-L1-1.14, (E)-1-(3-tert-butyl-4-methoxy-5-(4-methoxystyryl)phenyl)dihydropyrimidine-2,4(1H,3H)-dione], the EC50 in assay [1] and in assay [2] was over 1000 nM throughout. Also, the IC50 in assay [3] and in assay [4] was over 1000 nM each time.
Consider `COc1c(/C=C/c2ccc(NS(C)(=O)=O)cc2CO)cc(-n2ccc(=O)[nH]c2=O)cc1C(C)(C)C` [IB-L1-1.10, (E)-N-(4-(3-tert-butyl-5-(2,4-dioxo-3,4-dihydropyrimidin-1(2H)-yl)-2-methoxystyryl)-3-(hydroxymethyl)phenyl)methanesulfonamide], for which the EC50 in assay [1] and in assay [2] was under 10 nM throughout. In addition, the figures for the IC50 in assay [3] and in assay [4] were 10 to 100 nM and under 10 nM, respectively.
As to `COc1c(C=C(F)c2ccc(NS(C)(=O)=O)cc2)cc(N2CCC(=O)NC2=O)cc1C(C)(C)C` (racemic) [IA-L1-1.21, N-(4-(2-(3-tert-butyl-5-(2,4-dioxotetrahydropyrimidin-1(2H)-yl)-2-methoxyphenyl) 1-fluorovinyl)phenyl)methanesulfonamide], the EC50 in assay [1] and in assay [2] was under 10 nM each time. Also, the IC50 in assay [3] and in assay [4] was 10 to 100 nM throughout.
On to `COc1c(/C=C/c2ccc(NS(C)(=O)=O)cc2)cc(-n2ccc(=O)[nH]c2=O)cc1-c1ccoc1` [IB-L1-1.50, (E)-N-(4-(5-(2,4-dioxo-3,4-dihydropyrimidin-1(2H)-yl)-3-(furan-3-yl)-2-methoxystyryl)phenyl)methanesulfonamide], for which the EC50 in assay [1] (setting [5]) was 10 to 100 nM; in assay [2] (setting [6]) it was 100 to 1000 nM. Besides, the IC50 in assay [3] and in assay [4] was 10 to 100 nM each time.
Consider `CC(C)(C)c1cc(-n2ccc(=O)[nH]c2=O)cc(/C=C/c2ccc(NS(C)(=O)=O)cc2)c1Cl` [IB-L1-1.12, N-(4-{(E)-2-[3-tert-Butyl-2-chloro-5-(2,4-dioxo-3,4-dihydro-2H-pyrimidin-1-yl)-phenyl]-vinyl}-phenyl)-methanesulfonamide], for which the EC50 in assay [1] (setting [5]) and in assay [2] (setting [6]) was 10 to 100 nM each time. For the same molecule, the IC50 in assay [3] was 10 to 100 nM; in assay [4] it was under 10 nM.
On to `COc1c(/C=C(\Cl)c2ccc(NS(C)(=O)=O)cc2)cc(N2CCC(=O)NC2=O)cc1C(C)(C)C` [IA-L1-1.3, (Z)-N-(4-(2-(3-tert-butyl-5-(2,4-dioxotetrahydropyrimidin-1(2H)-yl)-2-methoxyphenyl)-1-chlorovinyl)phenyl)methanesulfonamide], for which the EC50 in assay [1] was under 10 nM; in assay [2], 10 to 100 nM. For the same molecule, the IC50 in assay [3] and in assay [4] was under 10 nM throughout.
As to `COc1c(/C=C/c2ccc(NS(C)(=O)=O)c(F)c2)cc(N2CCC(=O)NC2=O)cc1C(C)(C)C` [IA-L1-1.26, (E)-N-(4-(3-tert-butyl-5-(2,4-dioxotetrahydropyrimidin-1(2H)-yl)-2-methoxystyryl)-2-fluorophenyl)methanesulfonamide], the EC50 in assay [1] and in assay [2] was 10 to 100 nM in each case. Besides, the IC50 in assay [3] and in assay [4] was 10 to 100 nM each time.
Regarding `COc1c(/C=C/c2ccc(N(C(C)=O)S(C)(=O)=O)cc2)cc(N2CCC(=O)NC2=O)cc1C(C)(C)C` [IA-L1-1.11, (E)-N-(4-(3-tert-butyl-5-(2,4-dioxotetrahydropyrimidin-1(2H)-yl)-2-methoxystyryl)phenyl)-N-(methylsulfonyl)acetamide], the EC50 in assay [1] and in assay [2] was under 10 nM each time. Also, the IC50 in assay [3] and in assay [4] was 10 to 100 nM throughout.
Take `COc1c(CCc2ccc(NS(C)(=O)=O)cc2)cc(-n2ccc(=O)[nH]c2=O)cc1C(C)(C)C` [IB-L5-2-1.2, N-(4-(3-tert-butyl-5-(2,4-dioxo-3,4-dihydropyrimidin-1(2H)-yl)-2-methoxyphenethyl)phenyl)methanesulfonamide]: the EC50 was 10 to 100 nM in assay [1] (setting [5]) and 100 to 1000 nM in assay [2] (setting [6]). The IC50 in assay [3] and in assay [4] was 10 to 100 nM throughout.
For the molecule `COc1c(/C=C\c2ccc(NS(C)(=O)=O)cc2)cc(-n2ccc(=O)[nH]c2=O)cc1C(C)(C)C` [IB-L1-1.34, N-(4-{(Z)-2-[3-tert-Butyl-5-(2,4-dioxo-3,4-dihydro-2H-pyrimidin-1-yl)-2-methoxy-phenyl]-vinyl}-phenyl)-methanesulfonamide], the EC50 in assay [1] was under 10 nM; in assay [2], 10 to 100 nM. The IC50 in assay [3] and in assay [4] was over 1000 nM in each case.
In the case of `COc1c(/C=C/c2ccc(NS(C)(=O)=O)cc2C(=O)N2CCCC2)cc(-n2ccc(=O)[nH]c2=O)cc1C(C)(C)C` [IB-L1-1.27, N-[4-{(E)-2-[3-tert-butyl-5-(2,4-dioxo-3,4-dihydro-2H-pyrimidin-1-yl)-2-methoxy-phenyl]-vinyl}-3-(pyrrolidine-1-carbonyl)-phenyl]-methanesulfonamide], the EC50 in assay [1] is under 10 nM; in assay [2], 10 to 100 nM. The IC50 in assay [3] and in assay [4] was 10 to 100 nM each time.
Turning to `CO/N=C/c1cc(NS(C)(=O)=O)ccc1/C=C/c1cc(-n2ccc(=O)[nH]c2=O)cc(C(C)(C)C)c1OC` [IB-L1-1.19, N-(4-(3-tert-butyl-5-(2,4-dioxo-3,4-dihydropyrimidin-1(2H)-yl)-2-methoxystyryl)-3-((E)-(methoxyimino)methyl)phenyl)methanesulfonamide], the EC50 is under 10 nM in assay [1] and 10 to 100 nM in assay [2]. The IC50 is 10 to 100 nM in assay [3] and under 10 nM in assay [4].
